# Test results reported in ChEMBL document CHEMBL2429768, “Eco-friendly synthesis and antimicrobial activities of substituted-5-(1H-indol-3-yl)methylene)-2,2-dimethyl-1,3-dioxane-4,6-dione derivatives” (2013).
# Experiments:
# Assay type in all cases: functional
# Aspergillus niger [1] = test: Antifungal activity against Aspergillus niger at 50 ug/ml after 72 hrs by agar well diffusion method; conditions: read-out: DIZ
# Fusarium oxysporum [2] = test: Antifungal activity against Fusarium oxysporum at 500 ug/ml after 72 hrs by agar well diffusion method; conditions: read-out: DIZ
# Fusarium oxysporum [3] = test: Antifungal activity against Fusarium oxysporum at 300 ug/ml after 72 hrs by agar well diffusion method; conditions: read-out: DIZ
# Fusarium oxysporum [4] = test: Antifungal activity against Fusarium oxysporum at 200 ug/ml after 72 hrs by agar well diffusion method; conditions: read-out: DIZ
# Fusarium oxysporum [5] = test: Antifungal activity against Fusarium oxysporum at 100 ug/ml after 72 hrs by agar well diffusion method; conditions: read-out: DIZ
# Fusarium oxysporum [6] = test: Antifungal activity against Fusarium oxysporum at 50 ug/ml after 72 hrs by agar well diffusion method; conditions: read-out: DIZ
# Rhizoctonia solani [7] = test: Antifungal activity against Rhizoctonia solani at 500 ug/ml after 72 hrs by agar well diffusion method; conditions: read-out: DIZ
# Rhizoctonia solani [8] = test: Antifungal activity against Rhizoctonia solani at 300 ug/ml after 72 hrs by agar well diffusion method; conditions: read-out: DIZ
# Rhizoctonia solani [9] = test: Antifungal activity against Rhizoctonia solani at 200 ug/ml after 72 hrs by agar well diffusion method; conditions: read-out: DIZ
# Rhizoctonia solani [10] = test: Antifungal activity against Rhizoctonia solani at 100 ug/ml after 72 hrs by agar well diffusion method; conditions: read-out: DIZ
# Rhizoctonia solani [11] = test: Antifungal activity against Rhizoctonia solani at 50 ug/ml after 72 hrs by agar well diffusion method; conditions: read-out: DIZ
# Bacillus subtilis [12] = test: Antibacterial activity against Bacillus subtilis at 500 ug/ml after 24 hrs by agar well diffusion method; conditions: read-out: DIZ
# Bacillus subtilis [13] = test: Antibacterial activity against Bacillus subtilis at 300 ug/ml after 24 hrs by agar well diffusion method; conditions: read-out: DIZ
# Bacillus subtilis [14] = test: Antibacterial activity against Bacillus subtilis at 200 ug/ml after 24 hrs by agar well diffusion method; conditions: read-out: DIZ
# Bacillus subtilis [15] = test: Antibacterial activity against Bacillus subtilis at 100 ug/ml after 24 hrs by agar well diffusion method; conditions: read-out: DIZ
# Bacillus subtilis [16] = test: Antibacterial activity against Bacillus subtilis at 50 ug/ml after 24 hrs by agar well diffusion method; conditions: read-out: DIZ
# Staphylococcus aureus [17] = test: Antibacterial activity against Staphylococcus aureus ATCC 6538 at 500 ug/ml after 24 hrs by agar well diffusion method; conditions: ATCC 6538, 24 h, read-out: DIZ
# Staphylococcus aureus [18] = test: Antibacterial activity against Staphylococcus aureus ATCC 6538 at 300 ug/ml after 24 hrs by agar well diffusion method; conditions: ATCC 6538, 24 h, read-out: DIZ
# Staphylococcus aureus [19] = test: Antibacterial activity against Staphylococcus aureus ATCC 6538 at 200 ug/ml after 24 hrs by agar well diffusion method; conditions: ATCC 6538, 24 h, read-out: DIZ
# Staphylococcus aureus [20] = test: Antibacterial activity against Staphylococcus aureus ATCC 6538 at 100 ug/ml after 24 hrs by agar well diffusion method; conditions: ATCC 6538, 24 h, read-out: DIZ
# Escherichia coli [21] = test: Antibacterial activity against Escherichia coli ATCC 8739 at 300 ug/ml after 24 hrs by agar well diffusion method; conditions: ATCC 8739, 24 h, read-out: DIZ
# Escherichia coli [22] = test: Antibacterial activity against Escherichia coli ATCC 8739 at 200 ug/ml after 24 hrs by agar well diffusion method; conditions: ATCC 8739, 24 h, read-out: DIZ
# Escherichia coli [23] = test: Antibacterial activity against Escherichia coli ATCC 8739 at 100 ug/ml after 24 hrs by agar well diffusion method; conditions: ATCC 8739, 24 h, read-out: DIZ
# Escherichia coli [24] = test: Antibacterial activity against Escherichia coli ATCC 8739 at 50 ug/ml after 24 hrs by agar well diffusion method; conditions: ATCC 8739, 24 h, read-out: DIZ
# Klebsiella pneumoniae [25] = test: Antibacterial activity against Klebsiella pneumoniae at 500 ug/ml after 24 hrs by agar well diffusion method; conditions: read-out: DIZ
# Klebsiella pneumoniae [26] = test: Antibacterial activity against Klebsiella pneumoniae at 300 ug/ml after 24 hrs by agar well diffusion method; conditions: read-out: DIZ
# Klebsiella pneumoniae [27] = test: Antibacterial activity against Klebsiella pneumoniae at 200 ug/ml after 24 hrs by agar well diffusion method; conditions: read-out: DIZ
# Klebsiella pneumoniae [28] = test: Antibacterial activity against Klebsiella pneumoniae at 50 ug/ml after 24 hrs by agar well diffusion method; conditions: read-out: DIZ
# Escherichia coli [29] = test: Antibacterial activity against Escherichia coli ATCC 8739 at 500 ug/ml after 24 hrs by agar well diffusion method; conditions: ATCC 8739, 24 h, read-out: DIZ
# Klebsiella pneumoniae [30] = test: Antibacterial activity against Klebsiella pneumoniae at 100 ug/ml after 24 hrs by agar well diffusion method; conditions: read-out: DIZ
# Staphylococcus aureus [31] = test: Antibacterial activity against Staphylococcus aureus ATCC 6538 at 50 ug/ml after 24 hrs by agar well diffusion method; conditions: ATCC 6538, 24 h, read-out: DIZ
# Aspergillus flavus [32] = test: Antifungal activity against Aspergillus flavus at 50 ug/ml after 72 hrs by agar well diffusion method; conditions: read-out: DIZ
# Aspergillus flavus [33] = test: Antifungal activity against Aspergillus flavus at 100 ug/ml after 72 hrs by agar well diffusion method; conditions: read-out: DIZ
# Aspergillus flavus [34] = test: Antifungal activity against Aspergillus flavus after 72 hrs by agar well diffusion method
# Aspergillus niger [35] = test: Antifungal activity against Aspergillus niger after 72 hrs by agar well diffusion method
# Fusarium oxysporum [36] = test: Antifungal activity against Fusarium oxysporum after 72 hrs by agar well diffusion method
# Rhizoctonia solani [37] = test: Antifungal activity against Rhizoctonia solani after 72 hrs by agar well diffusion method
# Bacillus subtilis [38] = test: Antibacterial activity against Bacillus subtilis after 24 hrs by agar well diffusion method
# Staphylococcus aureus [39] = test: Antibacterial activity against Staphylococcus aureus ATCC 6538 after 24 hrs by agar well diffusion method; conditions: ATCC 6538, 24 h
# Escherichia coli [40] = test: Antibacterial activity against Escherichia coli ATCC 8739 after 24 hrs by agar well diffusion method; conditions: ATCC 8739, 24 h
# Klebsiella pneumoniae [41] = test: Antibacterial activity against Klebsiella pneumoniae after 24 hrs by agar well diffusion method
# Aspergillus flavus [42] = test: Antifungal activity against Aspergillus flavus at 500 ug/ml after 72 hrs by agar well diffusion method; conditions: read-out: DIZ
# Aspergillus flavus [43] = test: Antifungal activity against Aspergillus flavus at 300 ug/ml after 72 hrs by agar well diffusion method; conditions: read-out: DIZ
# Aspergillus flavus [44] = test: Antifungal activity against Aspergillus flavus at 200 ug/ml after 72 hrs by agar well diffusion method; conditions: read-out: DIZ
# Aspergillus niger [45] = test: Antifungal activity against Aspergillus niger at 500 ug/ml after 72 hrs by agar well diffusion method; conditions: read-out: DIZ
# Aspergillus niger [46] = test: Antifungal activity against Aspergillus niger at 300 ug/ml after 72 hrs by agar well diffusion method; conditions: read-out: DIZ
# Aspergillus niger [47] = test: Antifungal activity against Aspergillus niger at 200 ug/ml after 72 hrs by agar well diffusion method; conditions: read-out: DIZ
# Aspergillus niger [48] = test: Antifungal activity against Aspergillus niger at 100 ug/ml after 72 hrs by agar well diffusion method; conditions: read-out: DIZ
structure (smiles),measurement,setting,value
CCn1cc(C=C2C(=O)OC(C)(C)OC2=O)c2cc([N+](=O)[O-])ccc21,zone of inhibition at 50 µg/mL,Aspergillus niger [1],6 mm
same,zone of inhibition at 500 µg/mL,Fusarium oxysporum [2],29 mm
same,zone of inhibition at 300 µg/mL,Fusarium oxysporum [3],21 mm
same,zone of inhibition at 200 µg/mL,Fusarium oxysporum [4],16 mm
same,zone of inhibition at 100 µg/mL,Fusarium oxysporum [5],12 mm
same,zone of inhibition at 50 µg/mL,Fusarium oxysporum [6],7 mm
same,zone of inhibition at 500 µg/mL,Rhizoctonia solani [7],29 mm
same,zone of inhibition at 300 µg/mL,Rhizoctonia solani [8],21 mm
same,zone of inhibition at 200 µg/mL,Rhizoctonia solani [9],16 mm
same,zone of inhibition at 100 µg/mL,Rhizoctonia solani [10],12 mm
same,zone of inhibition at 50 µg/mL,Rhizoctonia solani [11],7 mm
same,zone of inhibition at 500 µg/mL,Bacillus subtilis [12],22 mm
same,zone of inhibition at 300 µg/mL,Bacillus subtilis [13],14 mm
same,zone of inhibition at 200 µg/mL,Bacillus subtilis [14],11 mm
same,zone of inhibition at 100 µg/mL,Bacillus subtilis [15],9 mm
same,zone of inhibition at 50 µg/mL,Bacillus subtilis [16],4 mm
same,zone of inhibition at 500 µg/mL,Staphylococcus aureus [17],26 mm
same,zone of inhibition at 300 µg/mL,Staphylococcus aureus [18],16 mm
same,zone of inhibition at 200 µg/mL,Staphylococcus aureus [19],13 mm
same,zone of inhibition at 100 µg/mL,Staphylococcus aureus [20],10 mm
same,zone of inhibition at 300 µg/mL,Escherichia coli [21],20 mm
same,zone of inhibition at 200 µg/mL,Escherichia coli [22],15 mm
same,zone of inhibition at 100 µg/mL,Escherichia coli [23],13 mm
same,zone of inhibition at 50 µg/mL,Escherichia coli [24],8 mm
same,zone of inhibition at 500 µg/mL,Klebsiella pneumoniae [25],32 mm
same,zone of inhibition at 300 µg/mL,Klebsiella pneumoniae [26],23 mm
same,zone of inhibition at 200 µg/mL,Klebsiella pneumoniae [27],18 mm
same,zone of inhibition at 50 µg/mL,Klebsiella pneumoniae [28],9 mm
same,zone of inhibition at 500 µg/mL,Escherichia coli [29],31 mm
same,zone of inhibition at 100 µg/mL,Klebsiella pneumoniae [30],14 mm
same,zone of inhibition at 50 µg/mL,Staphylococcus aureus [31],6 mm
same,zone of inhibition at 50 µg/mL,Aspergillus flavus [32],4 mm
same,zone of inhibition at 100 µg/mL,Aspergillus flavus [33],9 mm
same,MIC,Aspergillus flavus [34],40 µg/mL
same,MIC,Aspergillus niger [35],40 µg/mL
same,MIC,Fusarium oxysporum [36],35 µg/mL
same,MIC,Rhizoctonia solani [37],35 µg/mL
same,MIC,Bacillus subtilis [38],30 µg/mL
same,MIC,Staphylococcus aureus [39],25 µg/mL
same,MIC,Escherichia coli [40],15 µg/mL
same,MIC,Klebsiella pneumoniae [41],15 µg/mL
same,zone of inhibition at 500 µg/mL,Aspergillus flavus [42],23 mm
same,zone of inhibition at 300 µg/mL,Aspergillus flavus [43],15 mm
same,zone of inhibition at 200 µg/mL,Aspergillus flavus [44],12 mm
same,zone of inhibition at 500 µg/mL,Aspergillus niger [45],25 mm
same,zone of inhibition at 300 µg/mL,Aspergillus niger [46],18 mm
same,zone of inhibition at 200 µg/mL,Aspergillus niger [47],14 mm
same,zone of inhibition at 100 µg/mL,Aspergillus niger [48],10 mm
